Assays:
[1] = Pendant drop shape
[2] = molar heat capacity at constant pressure; settings: 101 kPa, Liquid, Small sample (50 mg) DSC
[3] = wn = mass fraction of the nth substance listed; settings: Pendant drop shape, w1 = 1

CC[n+]1ccc(C)cc1.O=S(=O)([N-]S(=O)(=O)C(F)(F)F)C(F)(F)F
Settings	molar heat capacity at constant pressure [J/K/mol]	surface tension liquid-gas [mN/m]
[1], 298.2 K	–	24.3
[1], 303.2 K	–	23.9
[1], 313.2 K	–	23.1
[1], 323.2 K	–	22.2
[2], 296.2 K	627	–
[2], 300.2 K	634	–
[2], 304.2 K	637	–
[2], 308.2 K	640	–
[2], 312.2 K	644	–
[2], 316.2 K	647	–
[2], 320.2 K	649	–
[2], 324.2 K	652	–
[2], 328.2 K	655	–
[2], 332.2 K	659	–
[2], 336.2 K	665	–
[2], 340.2 K	669	–
[2], 344.2 K	674	–
[2], 348.2 K	679	–
[2], 352.2 K	685	–
[2], 356.2 K	691	–
[2], 360.2 K	697	–
[2], 364.2 K	703	–
[2], 368.2 K	708	–
[2], 372.2 K	715	–

CCn1cc[n+](C)c1.N#CN=C=[N-] [1-ethyl-3-methylimidazolium dicyanamide]
[1]
Settings	surface tension liquid-gas [mN/m]
298.2 K	56.4
303.2 K	56
313.2 K	54.8
323.2 K	53.5

CCn1cc[n+](C)c1.N#CN=C=[N-] [1-ethyl-3-methylimidazolium dicyanamide] + CC[n+]1ccc(C)cc1.O=S(=O)([N-]S(=O)(=O)C(F)(F)F)C(F)(F)F
[3]
Settings	surface tension liquid-gas [mN/m]
298.2 K	56.4
303.2 K	56
313.2 K	54.8
323.2 K	53.5
